The source made the active and inactive calls. No cut-off for these calls is given here.
How the values were obtained:
Progesterone receptor [1] = target: T1, Progesterone receptor (Homo sapiens, UniProt P06401); assay: Antagonist activity at human progesterone receptor in T47D cells after 24 hrs by alkaline phosphatase assay; format: functional, cell-based
T1 sequence (P06401 whole entry): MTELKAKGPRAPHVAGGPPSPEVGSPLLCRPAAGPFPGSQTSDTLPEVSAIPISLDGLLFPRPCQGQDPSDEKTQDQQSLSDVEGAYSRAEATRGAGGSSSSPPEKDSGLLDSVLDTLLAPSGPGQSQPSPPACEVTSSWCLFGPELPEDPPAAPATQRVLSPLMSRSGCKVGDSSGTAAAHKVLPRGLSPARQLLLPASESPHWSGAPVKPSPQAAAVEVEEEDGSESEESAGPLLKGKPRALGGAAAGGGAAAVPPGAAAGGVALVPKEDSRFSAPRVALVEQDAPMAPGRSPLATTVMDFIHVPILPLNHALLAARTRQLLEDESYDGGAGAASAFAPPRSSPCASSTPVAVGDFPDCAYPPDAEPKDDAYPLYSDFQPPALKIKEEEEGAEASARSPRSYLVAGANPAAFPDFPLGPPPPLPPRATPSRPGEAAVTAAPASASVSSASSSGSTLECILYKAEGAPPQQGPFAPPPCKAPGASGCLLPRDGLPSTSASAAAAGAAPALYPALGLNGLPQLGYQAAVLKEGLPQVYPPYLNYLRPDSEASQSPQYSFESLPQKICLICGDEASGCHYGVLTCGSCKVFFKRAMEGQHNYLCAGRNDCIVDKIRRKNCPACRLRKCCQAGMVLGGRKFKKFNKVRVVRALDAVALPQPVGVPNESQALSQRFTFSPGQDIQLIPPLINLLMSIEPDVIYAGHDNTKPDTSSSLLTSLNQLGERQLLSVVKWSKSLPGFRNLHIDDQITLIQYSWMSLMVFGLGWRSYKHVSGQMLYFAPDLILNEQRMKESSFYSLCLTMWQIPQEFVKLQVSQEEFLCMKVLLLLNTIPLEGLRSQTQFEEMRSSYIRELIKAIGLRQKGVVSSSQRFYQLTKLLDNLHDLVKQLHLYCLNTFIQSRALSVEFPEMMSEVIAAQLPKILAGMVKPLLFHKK

[2] = target: T2, Progesterone receptor (Homo sapiens) (UniProt P06401); assay: Binding affinity to human PR LBD by fluorescence assay
T2 sequence (whole entry): T1 sequence (P06401 whole entry)

Glucocorticoid receptor = target: T3, Glucocorticoid receptor (Homo sapiens, UniProt P04150); assay: Displacement of [3H]-dexamethasone from human recombinant glucocorticoid receptor after 18 hrs by liquid scintillation counting
T3 sequence (P04150 whole entry): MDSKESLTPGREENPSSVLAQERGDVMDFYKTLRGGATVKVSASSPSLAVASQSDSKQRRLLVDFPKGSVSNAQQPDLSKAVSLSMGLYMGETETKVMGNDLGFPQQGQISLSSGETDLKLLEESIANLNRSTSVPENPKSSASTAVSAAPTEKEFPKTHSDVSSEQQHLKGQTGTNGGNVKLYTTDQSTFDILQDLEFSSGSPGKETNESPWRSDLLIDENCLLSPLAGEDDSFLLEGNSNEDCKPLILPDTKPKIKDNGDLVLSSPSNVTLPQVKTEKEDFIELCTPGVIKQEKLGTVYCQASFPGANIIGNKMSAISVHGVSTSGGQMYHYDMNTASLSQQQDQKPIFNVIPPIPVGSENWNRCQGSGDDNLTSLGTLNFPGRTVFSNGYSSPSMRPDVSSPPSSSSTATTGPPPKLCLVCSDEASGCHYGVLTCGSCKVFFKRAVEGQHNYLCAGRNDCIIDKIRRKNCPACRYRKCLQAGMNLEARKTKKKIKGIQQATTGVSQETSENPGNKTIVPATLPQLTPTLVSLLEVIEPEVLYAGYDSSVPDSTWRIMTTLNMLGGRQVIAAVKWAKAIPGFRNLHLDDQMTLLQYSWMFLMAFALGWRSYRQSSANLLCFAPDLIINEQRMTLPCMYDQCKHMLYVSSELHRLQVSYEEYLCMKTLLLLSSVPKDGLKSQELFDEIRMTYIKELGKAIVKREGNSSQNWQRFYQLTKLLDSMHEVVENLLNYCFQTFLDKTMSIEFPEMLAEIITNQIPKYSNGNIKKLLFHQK

[3] = target: T2, Progesterone receptor (Homo sapiens); assay: Antagonist activity at human progesterone receptor expressed in CHO cells at 10^-5 M after 24 hrs by luciferase reporter gene assay; format: functional, cell-based
Progesterone receptor [4] = target: T1, Progesterone receptor; assay: Displacement of [1,2,6,7-3H]PG from human PR-LBD after 24 hrs by liquid scintillation counting
[5] = target: T2, Progesterone receptor (Homo sapiens); assay: Antagonist activity at human progesterone receptor expressed in CHO cells at 10^-6 M after 24 hrs by luciferase reporter gene assay; format: functional, cell-based
Androgen receptor = target: T4, Androgen receptor (Homo sapiens, UniProt P10275); assay: Displacement of [3H]DHT from human recombinant androgen receptor-LBD expressed in Escherichia coli after 18 hrs by liquid scintillation counting
T4 sequence (P10275 whole entry): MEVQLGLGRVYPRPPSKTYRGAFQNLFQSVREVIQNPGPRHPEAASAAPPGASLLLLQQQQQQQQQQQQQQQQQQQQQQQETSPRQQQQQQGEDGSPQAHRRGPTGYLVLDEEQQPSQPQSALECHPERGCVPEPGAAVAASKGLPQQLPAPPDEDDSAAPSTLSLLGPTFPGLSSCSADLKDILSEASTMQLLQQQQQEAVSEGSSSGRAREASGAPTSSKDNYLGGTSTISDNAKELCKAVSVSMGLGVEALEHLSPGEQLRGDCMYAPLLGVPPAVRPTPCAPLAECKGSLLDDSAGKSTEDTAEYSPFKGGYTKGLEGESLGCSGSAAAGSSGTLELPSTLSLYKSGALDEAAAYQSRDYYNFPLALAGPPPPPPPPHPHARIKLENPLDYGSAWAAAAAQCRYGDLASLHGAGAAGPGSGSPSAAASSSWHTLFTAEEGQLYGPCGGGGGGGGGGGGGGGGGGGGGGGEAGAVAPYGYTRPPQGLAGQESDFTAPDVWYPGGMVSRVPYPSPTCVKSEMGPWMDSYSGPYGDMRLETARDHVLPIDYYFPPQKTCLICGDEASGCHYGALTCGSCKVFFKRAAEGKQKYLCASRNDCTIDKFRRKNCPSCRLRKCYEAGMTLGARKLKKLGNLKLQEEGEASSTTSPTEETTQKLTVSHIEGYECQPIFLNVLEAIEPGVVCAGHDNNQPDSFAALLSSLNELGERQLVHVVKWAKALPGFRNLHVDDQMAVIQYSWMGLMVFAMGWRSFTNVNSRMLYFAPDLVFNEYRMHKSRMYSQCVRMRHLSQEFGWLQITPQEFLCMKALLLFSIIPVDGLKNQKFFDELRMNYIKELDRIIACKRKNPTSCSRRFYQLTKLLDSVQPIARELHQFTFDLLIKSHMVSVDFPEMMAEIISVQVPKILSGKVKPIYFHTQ

[6] = target: T2, Progesterone receptor (Homo sapiens); assay: Antagonist activity at human progesterone receptor expressed in CHO cells at 10^-7 M after 24 hrs by luciferase reporter gene assay; format: functional, cell-based
[7] = target: T5, Estrogen receptor (Homo sapiens) (UniProt P03372); assay: Binding affinity at human estrogen receptor by fluorescence assay
T5 sequence (whole entry): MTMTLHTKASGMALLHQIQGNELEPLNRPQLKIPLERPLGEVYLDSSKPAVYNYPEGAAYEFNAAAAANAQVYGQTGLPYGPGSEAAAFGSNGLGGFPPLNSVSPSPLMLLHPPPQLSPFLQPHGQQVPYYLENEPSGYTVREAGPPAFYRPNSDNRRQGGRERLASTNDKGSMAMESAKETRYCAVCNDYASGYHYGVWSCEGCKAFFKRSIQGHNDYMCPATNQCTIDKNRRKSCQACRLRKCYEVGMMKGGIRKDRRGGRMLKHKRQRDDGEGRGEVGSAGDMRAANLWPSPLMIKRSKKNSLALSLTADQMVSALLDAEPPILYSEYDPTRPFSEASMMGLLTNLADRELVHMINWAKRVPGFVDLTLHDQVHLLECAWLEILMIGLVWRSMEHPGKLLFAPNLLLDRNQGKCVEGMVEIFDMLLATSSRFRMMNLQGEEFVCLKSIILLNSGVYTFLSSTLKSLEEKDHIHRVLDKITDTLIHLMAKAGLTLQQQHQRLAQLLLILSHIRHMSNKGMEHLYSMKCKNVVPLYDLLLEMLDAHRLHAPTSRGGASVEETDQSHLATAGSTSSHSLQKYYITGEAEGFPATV

[8] = target: T2, Progesterone receptor (Homo sapiens); assay: Binding affinity to human PR LBD by fluorescence assay in presence of progesterone

Row | SMILES | IC50 (Progesterone receptor [1]) | other results
1 | COc1cc2oc(=O)ccc2cc1-c1ccc(N(C)C)cc1 | 3340 nM | –
2 | COc1cc2oc(=O)ccc2cc1-c1ccccc1 | 880 nM | –
3 | O=c1ccc2cc(-c3cccs3)ccc2o1 | 540 nM | Activity [3]: Active; IC50 (Progesterone receptor [4]): 10000 nM; Activity [5]: Active; Activity [6]: Active
4 | N#Cc1ccc(-c2ccc3oc(=O)ccc3c2)cc1 | 290 nM | –
5 | CCOC(=O)c1cc2cc(-c3ccccc3)c(N(CC)CC)cc2oc1=O | 4070 nM | –
6 | CN(C)c1ccc(-c2ccc3oc(=O)ccc3c2)cc1 | 310 nM | –
7 | O=c1ccc2cc(-c3cccc(C(F)(F)F)c3)ccc2o1 | 190 nM | –
8 | O=c1ccc2cc(-c3cc(F)cc(F)c3)ccc2o1 | 560 nM | –
9 | O=c1ccc2cc(-c3ccco3)ccc2o1 | 1280 nM | –
10 | O=c1ccc2cc(-c3ccccc3)ccc2o1 | 510 nM | –
11 | Cn1c(C#N)ccc1-c1ccc2oc(=O)ccc2c1 | 65 nM | Activity [3]: Active; IC50 (Progesterone receptor [4]): 15200 nM; Activity [5]: Active; Activity [6]: Active
12 | O=c1ccc2cc(-c3cccc(-c4cccnc4)c3)ccc2o1 | 27900 nM | –
13 | O=c1ccc2cc(-c3ccccc3)c(O)cc2o1 | 1280 nM | –
14 | N#Cc1cccc(-c2ccc3oc(=O)ccc3c2)c1 | 1110 nM | –
15 | CN(C)c1cc2oc(=O)ccc2cc1-c1ccccc1 | 360 nM | –
16 | O=c1ccc2cc(-c3ccc(Cl)s3)ccc2o1 | 120 nM | Activity [3]: Active; IC50 (Progesterone receptor [4]): 50500 nM; Activity [5]: Active; Activity [6]: Active
17 | CN(C)c1cc2oc(=O)ccc2cc1-c1cccc(C#N)c1 | 260 nM | –

Second part, led by results:

Row | IC50 (Progesterone receptor [1]) | SMILES | other results
18 | 390 nM | CCN(CC)c1cc2oc(=O)ccc2cc1-c1ccc(N(C)C)cc1 | –
19 | 250 nM | CN(C)c1cc2oc(=O)ccc2cc1-c1ccc(C#N)cc1 | –
20 | 500 nM | CCN(CC)c1cc2oc(=O)ccc2cc1-c1ccccc1 | Activity [2]: Active; IC50 (Glucocorticoid receptor): 3540 nM; Activity [3]: Active; IC50 (Progesterone receptor [4]): 1420 nM; Activity [5]: Active; IC50 (Androgen receptor): 10000 nM; Activity [6]: Active; Activity [7]: inactive; Activity [8]: inactive
21 | 500 nM | CCN(CC)c1cc2oc(=O)ccc2cc1-c1ccc(C#N)cc1 | –
22 | 770 nM | CCN(CC)c1cc2oc(=O)ccc2cc1-c1ccc(Cl)cc1 | –
23 | 210 nM | O=c1ccc2cc(-c3ccc(F)cc3)ccc2o1 | –
24 | 510 nM | CCN(CC)c1cc2oc(=O)ccc2cc1-c1ccc(N)c([N+](=O)[O-])c1 | –
25 | 380 nM | CCN(CC)c1cc2oc(=O)ccc2cc1-c1cccc(C#N)c1 | –
26 | 220 nM | CCN(CC)c1cc2oc(=O)ccc2cc1-c1cccs1 | IC50 (Glucocorticoid receptor): 4960 nM; Activity [3]: Active; IC50 (Progesterone receptor [4]): 1240 nM; Activity [5]: Active; IC50 (Androgen receptor): 9700 nM; Activity [6]: Active
27 | 470 nM | CN(C)c1cc2oc(=O)ccc2cc1-c1ccc(F)cc1 | –
28 | 470 nM | CCN(CC)c1cc2oc(=O)ccc2cc1-c1ccc(NC(C)=O)cc1 | –
29 | 860 nM | CCN(CC)c1cc2oc(=O)ccc2cc1-c1ccc([N+](=O)[O-])cc1 | –
30 | 630 nM | CCN(CC)c1cc2oc(=O)ccc2cc1-c1ccc(F)cc1 | –
31 | 2590 nM | CN(C)c1ccc(-c2cc3ccc(=O)oc3cc2O)cc1 | –
32 | 400 nM | CCN(CC)c1cc2oc(=O)ccc2cc1-c1ccc(C(C)=O)cc1 | –

From ChEMBL document CHEMBL1833942, “6-arylcoumarins as novel nonsteroidal type progesterone antagonists: an example with receptor-binding-dependent fluorescence” (J Med Chem, 2011)
